Consider one compound from patent US20260159486A1, “BENZO[H]QUINAZOLINE-4-AMINE DERIVATIVES FOR THE TREATMENT OF CANCER” (Redona Therapeutics, Inc., priority 2021, published 2026).

A word on the IC50: it is the concentration that gives 50% inhibition. Broadly, the GI50 is the concentration giving 50% growth inhibition.

Each structure is given as a SMILES string.

The target of one data set is T1, recombinant human CLK3 (Homo sapiens, UniProt P49761).
T1 construct: purchased Thermo Fisher Scientific PV3826
The experiment in a line: CLK3 kinase assay (LANCE Ultra). Format: biochemical. Particulars: CLK3 0.5 nM, ATP 300 μM, 3 hours at 30° C. The method, boiled down: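 Recombinant human CLK3 (0.5 nM) with ULight-CREBtide (50 nM) and 300 μM ATP, 3 h at 30 °C in kinase buffer; EDTA stop, then Eu-anti-phospho-CREB antibody (2 nM, 1 h RT), TR-FRET read at 665/620 nm. Inhibition normalized to DMSO and no-ATP wells; IC50 from 4-parameter fit, ten 1:3 concentrations in duplicate.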

The next data set relates to CAL-51 cells. In words: CAL-51 proliferation assay. Format: cell-based. To be noted: Homo sapiens, CAL-51, 72 h, YO-PRO-1 Iodide readout. The method, boiled down: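 Cells seeded at 750 per well, treated next day for 72 h at 37 °C with 0.5% final DMSO. Cell number read by YO-PRO-1 fluorescence after lysis, normalized to DMSO (100%) and time-zero cells (0%). GI50 from 4-parameter logistic fit, maximum constrained to 100%.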

A short description of data set [1]: Body weight changes in SW480 xenograft study. Format: in vivo, NOD/SCID mice. Particulars: day-17; oral BID*BIW, 45 mg/kg days 1-10, 50 mg/kg days 11-22. The protocol: NOD/SCID mice of circa 23 g of weight were inoculated with 1×10^7 SW480 human colorectal cancer cells in 50% Matrigel™ subcutaneously in a flank. A pair match was performed when tumors reached an average volume of 100-150 mm^3 to distribute animals into treatment group and vehicle control (n=8/group). Tumor volumes (expressed in mm^3) were measured twice weekly using a caliper on days 1, 4, 8, 11, 15, 18, 22 and 23 of the treatment period. (A) The average TVol (±standard error of mean (SEM)) of each treatment group are shown. […] (B) Changes in BW in percentage (expressed in g, ±SEM) on days 1, 4, 8, 11, 15, 18, 22 and 23 of the treatment period. (C) Changes in vehicle- and Example 13-treated TVol expressed in mm^3. TVol ratio of Example 13-treated vs vehicle control (T/C) is indicated.
Female 8-9 weeks of age NOD/SCID mice of about 23 g of weight were used for the study (Jiangsu GemPharmatech Co., Ltd). Mice were inoculated subcutaneously in the flank region with 1×10^7 SW480 cells in PBS mixed with Matrigel™ (1:1) in a final injection volume of 0.2 mL/mouse. Once tumors reached an average size of 100-150 mm^3, a pair match was carried out to distribute mice to the different treatment groups. […]
Tumor volumes (expressed in mm^3) were measured in two dimensions using a caliper on days 1, 4, 8, 11, 15, 18, 22 and 23 of the treatment period. […]

T1 sequence (P49761 whole entry): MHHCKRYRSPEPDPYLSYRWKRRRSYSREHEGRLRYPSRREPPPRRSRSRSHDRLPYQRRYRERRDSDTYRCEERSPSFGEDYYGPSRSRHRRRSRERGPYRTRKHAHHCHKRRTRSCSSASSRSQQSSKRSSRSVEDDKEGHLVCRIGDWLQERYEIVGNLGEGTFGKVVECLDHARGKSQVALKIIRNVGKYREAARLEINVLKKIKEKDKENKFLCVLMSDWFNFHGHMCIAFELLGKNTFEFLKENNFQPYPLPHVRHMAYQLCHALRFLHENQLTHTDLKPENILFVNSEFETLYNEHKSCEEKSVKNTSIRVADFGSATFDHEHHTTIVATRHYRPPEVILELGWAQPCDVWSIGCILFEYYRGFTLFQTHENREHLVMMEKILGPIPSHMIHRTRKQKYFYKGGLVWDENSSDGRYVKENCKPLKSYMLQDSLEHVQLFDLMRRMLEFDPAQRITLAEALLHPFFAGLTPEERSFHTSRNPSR

For `COCCN(C)c1c(O[C@H]2CC[C@H](N)CC2)ccc2c1CC(C)(C)c1c(N)ncnc1-2` [Example 13, 8-(trans-4-aminocyclohexoxy)-N7-(2-methoxyethyl)-N7,5,5-trimethyl-6H-benzo[h]quinazoline-4,7-diamine], on recombinant human CLK3, the IC50 lay in the range of 30 to 100 nM. Besides, the GI50 with CAL-51 cells is under 100 nM. In addition, the “maximal body weight loss” value in data set [1] is 5%.
